# From patent US10005767B2, “Compositions and methods for inhibition of the JAK pathway” (Rigel Pharmaceuticals, Inc., priority 2009, dated 2018)
# Tested on: human primary T-cells, IL-2 stimulated proliferation (JAK-1 and JAK-3 dependent; reported as JAK3 activity)
# Assay: Human primary T-cell proliferation stimulated by IL-2 (Example 3)
# Format: cell-based
# Conditions: Homo sapiens, T-cell, tested under conditions described in Example 3 (IL-2 stimulated human primary T-cell proliferation); read-out: ability to inhibit JAK3 activity, IC50 range (Table V)
# From the text: The activity of the compounds described herein can further be characterized by assaying the effect of the 2,4-pyrimidinediamine compounds described herein on the proliferative response of primary human T-cells. In this assay, primary human T-cells derived from peripheral blood and pre-activated through stimulation of the T-cell receptor and CD28, proliferate in culture in response to the cytokine Interleukin-2 (IL-2). This proliferative response is dependent on the activation of JAK1 and JAK3 tyrosine kinases, which phosphorylate and activate the transcription factor Stat-5. The primary human T-cells are incubated with the 2,4-pyrimidinediamine compounds in the presence of IL-2 for 72 hours, and at the assay endpoint intracellular ATP concentrations are measured to assess cell viability. A reduction in cell proliferation compared to control conditions is indicative of inhibition of the JAK kinase pathway.
# Primary human T-cells derived from peripheral blood and pre-activated through stimulation of the T-cell receptor and CD28, proliferate in vitro in response to the cytokine Interleukin-2 (IL-2). This proliferative response is dependent on the activation of JAK-1 and JAK-3 tyrosine kinases, which phosphorylate and activate the transcription factor Stat-5.
# Human primary T cells were prepared as follows. […] The lymphocytes at the serum: ficoll interface were recovered and washed twice with 5 volumes of PBS. […] The primary T-cells were stimulated for 3-4 days, then transferred to a fresh flask and maintained in RPMI with 10% FBS and 40 U/mL IL-2.
# The day prior to the assay set up, primary T-cells were centrifuged and resuspended in fresh RPMI with 10% FBS but without IL-2 and starved overnight. For the assay, the primary T-cells were centrifuged and resuspended Yssel's medium at 2×10^6 cells/mL. 50 μL of cell suspension containing 80 U/mL IL-2 was added to each well of a flat bottom 96 well black plate. For the unstimulated control, IL-2 was omitted from the last column on the plate. […] 50 μL of 2× compound was added per well in duplicate and the cells were allowed to proliferate for 72 hours at 37° C.
# Proliferation was measured using CellTiter-Glo® Luminescent Cell Viability Assay (Promega), which determines the number of viable cells in culture based on quantitation of the ATP present, as an indicator of metabolically active cells. The substrate was thawed and allowed to come to ambient temperature. After mixing the Cell Titer-Glo reagent and diluent together, 100 μL was added to each well. The plates were mixed on an orbital shaker for two minutes to induce lysis and incubated at ambient temperature for an additional ten minutes to allow the signal to equilibrate.
# The compound designations in Table V are consistent with those of Tables I-IV above.
row,SMILES,IC50
1,"Cc1cnc(Nc2ccc(N3C[C@@H](C)N(C)C[C@@H]3C)nc2)nc1Nc1ccc2oc(=O)[nH]c2c1 (relative stereo) [II-129, 5-methyl-N4-(2-oxo-2,3-dihydro-1,3-benzoxazol-5-yl)-N2-[2-(trans-2,4,5-trimethylpiperazino)pyridin-5-yl]-2,4-pyrimidinediamine]",< 500 nM
2,"Cc1cnc(Nc2ccc(N3C[C@@H](C)NC[C@@H]3C)nc2)nc1Nc1ccc2oc(=O)[nH]c2c1 (relative stereo) [II-130, N2-[2-(trans-2,5-dimethylpiperazino)pyridin-5-yl]-5-methyl-N4-(2-oxo-2,3-dihydro-1,3-benzoxazol-5-yl)-2,4-pyrimidinediamine]",< 500 nM
3,"Cc1cnc(Nc2cccc(C=O)c2)nc1Nc1ccc2oc(=O)[nH]c2c1 [Compound I-1, N4-(benzo[d]oxazol-2(3H)-on-5-yl)-N2-(3-formylphenyl)-5-methylpyrimidine-2,4-diamine]",500 to 5000 nM
4,"Cc1cnc(Nc2cccc(C(N)=O)c2)nc1Nc1ccc2oc(=O)[nH]c2c1 [Compound I-2, N4-(benzo[d]oxazol-2(3H)-on-5-yl)-N2-(3-aminocarbonylphenyl)-5-methylpyrimidine-2,4-diamine]",< 500 nM
5,"Cc1cnc(Nc2ccc(C(N)=O)cc2)nc1Nc1ccc2oc(=O)[nH]c2c1 [Compound I-3, N4-(benzo[d]oxazol-2(3H)-on-5-yl)-N2-(4-aminocarbonylphenyl)-5-methylpyrimidine-2,4-diamine]",< 500 nM
6,"Cc1cnc(Nc2ccc(C=O)cc2)nc1Nc1ccc2oc(=O)[nH]c2c1 [Compound I-4, N4-(benzo[d]oxazol-2(3H)-on-5-yl)-N2-(4-formylphenyl)-5-methylpyrimidine-2,4-diamine]",< 500 nM
7,"Cc1cc(Nc2ncc(C)c(Nc3ccc4oc(=O)[nH]c4c3)n2)ccc1N1CC2(C)CN(C)CC(C)(C1)C2 [Compound I-5, N4-(benzo[d]oxazol-2(3H)-on-5-yl)-N2-(3-methyl-4-(1,5,7-trimethyl-3,7-diazabicyclo[3.3.1]nonan-3-yl)phenyl)-5-methylpyrimidine-2,4-diamine]",500 to 5000 nM
8,"Cc1cnc(Nc2ccc(N3CC4(C)CN(C)CC(C)(C3)C4)c(F)c2)nc1Nc1ccc2oc(=O)[nH]c2c1 [Compound I-6, N4-(benzo[d]oxazol-2(3H)-on-5-yl)-N2-(3-fluoro-4-(1,5,7-trimethyl-3,7-diazabicyclo[3.3.1]nonan-3-yl)phenyl)-5-methylpyrimidine-2,4-diamine]",< 500 nM
9,"NS(=O)(=O)c1ccc(Nc2ncc(F)c(Nc3ccc4[nH]c(=O)[nH]c4c3)n2)cc1 [Compound I-13, 5-(5-fluoro-2-(4-aminosulfonylphenylamino)pyrimidin-4-ylamino)-1H-benzo[d]imidazol-2(3H)-one]",500 to 5000 nM
10,"Cc1cnc(Nc2cccc(C#N)c2)nc1Nc1ccc2oc(=O)[nH]c2c1 [Compound I-26, N4-(benzo[d]oxazol-2(3H)-on-5-yl)-N2-(3-cyanophenyl)-5-methylpyrimidine-2,4-diamine]",< 500 nM
11,"Cc1cnc(Nc2ccc(C#N)cc2)nc1Nc1ccc2oc(=O)[nH]c2c1 [Compound I-27, N4-(benzo[d]oxazol-2(3H)-on-5-yl)-N2-(4-cyanophenyl)-5-methylpyrimidine-2,4-diamine]",< 500 nM
12,"Cc1cnc(Nc2cccc(S(=O)(=O)N3CCOCC3)c2)nc1Nc1ccc2oc(=O)[nH]c2c1 [Compound I-30, N4-(benzo[d]oxazol-2(3H)-on-5-yl)-N2-(3-(morpholinosulfonyl)phenyl)-5-methylpyrimidine-2,4-diamine]",< 500 nM
13,"O=c1[nH]c2cc(Nc3nc(Nc4cccc(S(=O)(=O)N5CCOCC5)c4)ncc3F)ccc2o1 [Compound I-31, N4-(benzo[d]oxazol-2(3H)-on-5-yl)-N2-(3-(morpholinosulfonyl)phenyl)-5-fluoropyrimidine-2,4-diamine]",< 500 nM

# Same assay, conditions: tested under conditions described in Example 3 (IL-2 stimulated human primary T-cell proliferation); read-out: ability to inhibit JAK3 activity, IC50 range (Table V)
row,SMILES,IC50
1,"CCCn1c(=O)oc2ccc(Nc3nc(Nc4cccc(S(C)(=O)=O)c4)ncc3C)cc21 [Compound I-7, N4-(3-n-propylbenzo[d]oxazol-2(3H)-on-5-yl)-N2-((3-methylsulfonyl)phenyl)-5-methylpyrimidine-2,4-diamine]",< 500 nM
2,"CCCn1c(=O)oc2ccc(Nc3nc(Nc4ccc(NS(C)(=O)=O)cc4)ncc3C)cc21 [Compound I-8, N4-(3-n-propylbenzo[d]oxazol-2(3H)-on-5-yl)-N2-((4-methylsulfonylamino)phenyl)-5-methylpyrimidine-2,4-diamine]",< 500 nM
3,"Cc1cnc(Nc2cccc(S(C)(=O)=O)c2)nc1Nc1ccc2oc(=O)n(C(C)C)c2c1 [Compound I-9, N4-(3-isopropylbenzo[d]oxazol-2(3H)-on-5-yl)-N2-((3-methylsulfonyl)phenyl)-5-methylpyrimidine-2,4-diamine]",< 500 nM
4,"Cc1cnc(Nc2ccc(NS(C)(=O)=O)cc2)nc1Nc1ccc2oc(=O)n(C(C)C)c2c1 [Compound I-10, N4-(3-isopropylbenzo[d]oxazol-2(3H)-on-5-yl)-N2-((4-methylsulfonylamino)phenyl)-5-methylpyrimidine-2,4-diamine]",< 500 nM
5,"Cc1cnc(Nc2cccc(S(N)(=O)=O)c2)nc1Nc1ccc2[nH]c(=O)[nH]c2c1 [Compound I-11, N4-(benzimidazolin-2-on-5-yl)-N2-((3-aminosulfonyl)phenyl)-5-methylpyrimidine-2,4-diamine]",< 500 nM
6,"Cc1cnc(Nc2ccc(S(N)(=O)=O)cc2)nc1Nc1ccc2[nH]c(=O)[nH]c2c1 [Compound I-12, N4-(benzimidazolin-2-on-5-yl)-N2-((4-aminosulfonyl)phenyl)-5-methylpyrimidine-2,4-diamine]",> 10000 nM
7,Cc1cnc(Nc2cccc(S(N)(=O)=O)c2)nc1Nc1ccc2oc(=O)[nH]c2c1 [Compound I-14],< 500 nM
8,Cc1cnc(Nc2ccc(S(N)(=O)=O)cc2)nc1Nc1ccc2oc(=O)[nH]c2c1 [Compound I-15],< 500 nM
9,Cc1cnc(Nc2cccc(S(C)(=O)=O)c2)nc1Nc1ccc2oc(=O)[nH]c2c1 [Compound I-16],< 500 nM
10,Cc1cnc(Nc2ccc(S(C)(=O)=O)cc2)nc1Nc1ccc2oc(=O)[nH]c2c1 [Compound I-17],< 500 nM
11,NS(=O)(=O)c1cccc(Nc2ncc(F)c(Nc3ccc4oc(=O)[nH]c4c3)n2)c1 [Compound I-18],< 500 nM
12,NS(=O)(=O)c1ccc(Nc2ncc(F)c(Nc3ccc4oc(=O)[nH]c4c3)n2)cc1 [Compound I-19],< 500 nM
13,CS(=O)(=O)c1cccc(Nc2ncc(F)c(Nc3ccc4oc(=O)[nH]c4c3)n2)c1 [Compound I-20],< 500 nM
14,CS(=O)(=O)c1ccc(Nc2ncc(F)c(Nc3ccc4oc(=O)[nH]c4c3)n2)cc1 [Compound I-21],< 500 nM
15,"Cc1cnc(Nc2cccc(S(C)(=O)=O)c2)nc1Nc1ccc2[nH]c(=O)[nH]c2c1 [Compound I-22, N4-(benzimidazolin-2-on-5-yl)-N2-(3-methylsulfonyl)phenyl-5-methylpyrimidine-2,4-diamine]",< 500 nM
16,"CS(=O)(=O)c1ccc(Nc2ncc(F)c(Nc3ccc4[nH]c(=O)[nH]c4c3)n2)cc1 [Compound I-23, N4-(benzimidazolin-2-on-5-yl)-N2-(4-methylsulfonyl)phenyl-5-fluoropyrimidine-2,4-diamine]",> 10000 nM
17,"Cc1ccc(Nc2ncc(C)c(Nc3ccc4oc(=O)[nH]c4c3)n2)cc1S(N)(=O)=O [Compound I-24, N4-(benzo[d]oxazol-2(3H)-on-5-yl)-N2-((3-aminosulfonyl-4-methyl)phenyl)-5-methylpyrimidine-2,4-diamine]",< 500 nM
18,"Cc1cnc(Nc2cccc(S(=O)(=O)NC(C)(C)C)c2)nc1Nc1ccc2oc(=O)[nH]c2c1 [Compound I-25, N4-(benzo[d]oxazol-2(3H)-on-5-yl)-N2-((3-tert-butylaminosulfonyl)phenyl)-5-methylpyrimidine-2,4-diamine]",< 500 nM
19,"Cc1cnc(Nc2cccc(C#N)c2)nc1Nc1ccc2[nH]c(=O)[nH]c2c1 [Compound I-28, N4-(benzimidazolin-2-on-5-yl)-N2-(3-cyanophenyl)-5-methylpyrimidine-2,4-diamine]",< 500 nM
20,"Cc1cnc(Nc2ccc(C#N)cc2)nc1Nc1ccc2[nH]c(=O)[nH]c2c1 [Compound I-29, N4-(benzimidazolin-2-on-5-yl)-N2-(4-cyanophenyl)-5-methylpyrimidine-2,4-diamine]",> 10000 nM
